Test results reported in ChEMBL document CHEMBL3991601, “The target landscape of clinical kinase drugs” (Science, 2017).
Calls of active or inactive are those of the source. Rule as the data show it, for most assays here: actives have a measured Kd and inactives only a lower limit.

Columns and labels:
[1] = target: Cyclin-dependent kinase 1 (Homo sapiens, UniProt P06493)
[2] = target: T1, Ephrin type-B receptor 2 (Homo sapiens, UniProt P29323)
T1 sequence (P29323 whole entry): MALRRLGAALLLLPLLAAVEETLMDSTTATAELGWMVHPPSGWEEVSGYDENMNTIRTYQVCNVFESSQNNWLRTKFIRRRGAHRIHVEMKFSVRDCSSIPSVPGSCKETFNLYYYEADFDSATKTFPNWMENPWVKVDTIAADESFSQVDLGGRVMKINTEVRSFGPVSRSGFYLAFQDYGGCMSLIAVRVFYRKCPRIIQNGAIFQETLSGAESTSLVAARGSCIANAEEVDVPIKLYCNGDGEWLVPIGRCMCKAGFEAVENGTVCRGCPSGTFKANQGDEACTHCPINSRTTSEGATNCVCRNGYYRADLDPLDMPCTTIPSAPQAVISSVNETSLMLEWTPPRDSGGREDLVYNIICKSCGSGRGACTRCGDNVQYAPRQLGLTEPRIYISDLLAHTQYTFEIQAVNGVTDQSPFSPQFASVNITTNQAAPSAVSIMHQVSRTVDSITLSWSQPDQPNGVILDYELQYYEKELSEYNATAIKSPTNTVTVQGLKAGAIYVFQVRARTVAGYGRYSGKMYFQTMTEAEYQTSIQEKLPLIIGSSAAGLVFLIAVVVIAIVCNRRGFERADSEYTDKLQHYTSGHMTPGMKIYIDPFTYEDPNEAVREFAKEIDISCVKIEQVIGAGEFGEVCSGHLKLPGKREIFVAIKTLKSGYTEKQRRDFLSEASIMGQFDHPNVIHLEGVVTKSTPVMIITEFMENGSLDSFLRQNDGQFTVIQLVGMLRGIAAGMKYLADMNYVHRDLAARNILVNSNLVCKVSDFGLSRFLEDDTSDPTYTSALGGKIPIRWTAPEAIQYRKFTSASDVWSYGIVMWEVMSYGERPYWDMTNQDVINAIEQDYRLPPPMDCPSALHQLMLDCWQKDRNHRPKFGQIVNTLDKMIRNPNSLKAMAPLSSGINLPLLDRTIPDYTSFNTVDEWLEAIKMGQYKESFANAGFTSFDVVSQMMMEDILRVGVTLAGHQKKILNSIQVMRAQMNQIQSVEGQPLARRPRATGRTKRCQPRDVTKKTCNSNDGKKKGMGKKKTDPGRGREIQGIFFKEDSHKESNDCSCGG

[3] = target: T2, Dual specificity mitogen-activated protein kinase kinase 6 (Homo sapiens, UniProt P52564)
T2 sequence (P52564 whole entry): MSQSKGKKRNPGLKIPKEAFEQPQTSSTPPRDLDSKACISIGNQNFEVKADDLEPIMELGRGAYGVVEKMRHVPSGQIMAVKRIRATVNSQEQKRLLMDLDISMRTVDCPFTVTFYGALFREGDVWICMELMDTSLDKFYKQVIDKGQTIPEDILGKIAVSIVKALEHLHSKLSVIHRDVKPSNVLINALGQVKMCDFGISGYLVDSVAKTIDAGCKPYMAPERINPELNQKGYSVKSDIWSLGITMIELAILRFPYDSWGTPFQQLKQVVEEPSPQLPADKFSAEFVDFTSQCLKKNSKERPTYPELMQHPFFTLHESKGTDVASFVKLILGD

[4] = target: Mitogen-activated protein kinase kinase kinase 1 (Homo sapiens, UniProt Q13233)
Chain of Mitogen-activated protein kinase kinase kinase 1 (Q13233 whole entry): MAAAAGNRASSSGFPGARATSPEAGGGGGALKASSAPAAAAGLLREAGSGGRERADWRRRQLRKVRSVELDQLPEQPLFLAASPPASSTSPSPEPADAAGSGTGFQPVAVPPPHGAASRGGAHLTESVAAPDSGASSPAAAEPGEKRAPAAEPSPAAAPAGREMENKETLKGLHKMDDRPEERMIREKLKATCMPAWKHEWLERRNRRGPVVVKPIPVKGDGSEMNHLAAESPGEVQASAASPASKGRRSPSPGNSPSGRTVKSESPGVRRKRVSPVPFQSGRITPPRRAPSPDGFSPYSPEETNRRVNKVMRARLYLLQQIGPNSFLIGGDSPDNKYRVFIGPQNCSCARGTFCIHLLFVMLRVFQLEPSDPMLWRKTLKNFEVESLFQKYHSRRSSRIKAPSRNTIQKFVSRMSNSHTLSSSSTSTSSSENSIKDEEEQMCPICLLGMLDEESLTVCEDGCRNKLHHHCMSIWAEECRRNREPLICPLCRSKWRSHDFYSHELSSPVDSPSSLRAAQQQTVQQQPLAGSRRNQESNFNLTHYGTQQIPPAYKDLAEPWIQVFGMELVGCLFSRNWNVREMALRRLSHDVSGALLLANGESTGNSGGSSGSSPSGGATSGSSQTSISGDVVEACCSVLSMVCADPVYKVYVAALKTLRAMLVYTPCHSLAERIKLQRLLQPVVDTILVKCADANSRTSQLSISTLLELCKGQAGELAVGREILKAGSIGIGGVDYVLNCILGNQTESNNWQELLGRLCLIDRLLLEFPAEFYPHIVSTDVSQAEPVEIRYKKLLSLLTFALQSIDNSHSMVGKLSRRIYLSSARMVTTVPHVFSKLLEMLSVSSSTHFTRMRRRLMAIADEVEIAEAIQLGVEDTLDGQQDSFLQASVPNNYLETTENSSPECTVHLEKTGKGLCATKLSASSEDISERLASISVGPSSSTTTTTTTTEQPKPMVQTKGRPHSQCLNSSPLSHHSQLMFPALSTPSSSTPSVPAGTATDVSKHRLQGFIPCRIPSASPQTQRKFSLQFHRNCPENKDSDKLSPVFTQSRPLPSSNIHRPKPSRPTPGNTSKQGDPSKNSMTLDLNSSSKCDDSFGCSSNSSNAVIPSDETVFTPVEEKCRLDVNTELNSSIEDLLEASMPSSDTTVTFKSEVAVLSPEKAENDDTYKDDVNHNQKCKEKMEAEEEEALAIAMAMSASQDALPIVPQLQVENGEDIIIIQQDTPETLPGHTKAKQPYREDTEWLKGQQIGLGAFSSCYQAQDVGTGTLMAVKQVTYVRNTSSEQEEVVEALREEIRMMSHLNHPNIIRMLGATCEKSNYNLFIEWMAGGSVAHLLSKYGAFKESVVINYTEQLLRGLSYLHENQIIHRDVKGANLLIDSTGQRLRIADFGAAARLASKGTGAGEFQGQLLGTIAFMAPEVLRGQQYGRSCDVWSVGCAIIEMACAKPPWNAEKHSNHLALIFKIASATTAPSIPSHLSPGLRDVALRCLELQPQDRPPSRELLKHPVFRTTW

[5] = target: MAP kinase-activated protein kinase 2 (Homo sapiens, UniProt P49137)
Chain of MAP kinase-activated protein kinase 2 (P49137 whole entry): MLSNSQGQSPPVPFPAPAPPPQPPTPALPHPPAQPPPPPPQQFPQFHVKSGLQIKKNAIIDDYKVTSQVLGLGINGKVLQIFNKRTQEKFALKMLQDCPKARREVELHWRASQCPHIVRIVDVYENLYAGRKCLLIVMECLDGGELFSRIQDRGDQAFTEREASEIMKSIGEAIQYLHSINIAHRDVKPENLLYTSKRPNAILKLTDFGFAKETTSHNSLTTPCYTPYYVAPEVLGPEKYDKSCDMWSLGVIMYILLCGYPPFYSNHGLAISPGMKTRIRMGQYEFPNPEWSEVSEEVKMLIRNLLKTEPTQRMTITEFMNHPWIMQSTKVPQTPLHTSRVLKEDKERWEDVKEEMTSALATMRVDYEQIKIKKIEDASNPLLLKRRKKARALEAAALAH

[6] = target: Maternal embryonic leucine zipper kinase (Homo sapiens, UniProt Q14680)
Chain of Maternal embryonic leucine zipper kinase (Q14680 whole entry): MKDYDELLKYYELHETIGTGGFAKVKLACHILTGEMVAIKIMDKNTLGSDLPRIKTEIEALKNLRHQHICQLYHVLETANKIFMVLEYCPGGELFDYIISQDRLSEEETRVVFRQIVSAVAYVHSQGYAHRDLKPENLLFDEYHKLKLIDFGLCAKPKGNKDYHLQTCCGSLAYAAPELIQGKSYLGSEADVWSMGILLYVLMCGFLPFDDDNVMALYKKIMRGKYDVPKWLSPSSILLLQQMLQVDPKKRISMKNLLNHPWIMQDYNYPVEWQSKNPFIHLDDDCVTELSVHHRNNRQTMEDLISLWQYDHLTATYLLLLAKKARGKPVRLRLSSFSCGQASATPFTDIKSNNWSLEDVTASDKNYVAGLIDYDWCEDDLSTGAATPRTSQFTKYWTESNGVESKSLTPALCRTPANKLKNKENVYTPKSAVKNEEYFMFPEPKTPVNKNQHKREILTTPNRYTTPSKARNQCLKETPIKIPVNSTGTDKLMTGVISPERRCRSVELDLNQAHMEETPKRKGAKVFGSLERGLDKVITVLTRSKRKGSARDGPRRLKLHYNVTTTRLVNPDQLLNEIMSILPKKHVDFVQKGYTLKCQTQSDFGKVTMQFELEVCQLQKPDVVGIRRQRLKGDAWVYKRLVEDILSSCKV

[7] = target: T3, Dynamin-like GTPase OPA1, mitochondrial (Homo sapiens, UniProt O60313)
T3 sequence (O60313 whole entry): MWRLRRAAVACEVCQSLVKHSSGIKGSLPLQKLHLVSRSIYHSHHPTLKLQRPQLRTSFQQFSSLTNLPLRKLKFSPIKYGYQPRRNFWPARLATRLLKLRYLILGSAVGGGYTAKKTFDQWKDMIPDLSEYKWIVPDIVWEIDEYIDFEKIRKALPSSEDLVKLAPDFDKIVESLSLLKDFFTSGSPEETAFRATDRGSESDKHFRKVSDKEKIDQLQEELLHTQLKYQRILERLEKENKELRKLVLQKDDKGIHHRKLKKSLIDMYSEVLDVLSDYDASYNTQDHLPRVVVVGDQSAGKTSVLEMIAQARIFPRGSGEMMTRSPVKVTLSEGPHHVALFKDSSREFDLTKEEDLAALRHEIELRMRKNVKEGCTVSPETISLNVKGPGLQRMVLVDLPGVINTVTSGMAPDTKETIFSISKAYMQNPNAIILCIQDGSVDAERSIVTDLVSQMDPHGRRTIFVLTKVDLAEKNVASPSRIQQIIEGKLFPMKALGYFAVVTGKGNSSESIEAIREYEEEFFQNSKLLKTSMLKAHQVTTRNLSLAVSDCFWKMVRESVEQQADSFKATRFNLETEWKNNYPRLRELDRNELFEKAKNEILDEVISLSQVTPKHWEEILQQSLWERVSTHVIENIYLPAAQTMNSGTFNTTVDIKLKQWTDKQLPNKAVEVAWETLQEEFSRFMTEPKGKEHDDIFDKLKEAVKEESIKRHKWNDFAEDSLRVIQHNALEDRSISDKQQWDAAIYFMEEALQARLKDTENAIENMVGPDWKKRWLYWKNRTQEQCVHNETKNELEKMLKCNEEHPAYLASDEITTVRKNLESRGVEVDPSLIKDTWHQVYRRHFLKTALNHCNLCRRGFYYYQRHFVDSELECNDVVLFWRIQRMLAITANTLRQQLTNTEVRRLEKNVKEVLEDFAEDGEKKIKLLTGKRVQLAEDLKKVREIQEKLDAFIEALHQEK

[8] = target: Serine/threonine-protein kinase N1 (Homo sapiens, UniProt Q16512)
[9] = target: Serine/threonine-protein kinase SIK2 (Homo sapiens, UniProt Q9H0K1)
Chain of Serine/threonine-protein kinase SIK2 (Q9H0K1 whole entry): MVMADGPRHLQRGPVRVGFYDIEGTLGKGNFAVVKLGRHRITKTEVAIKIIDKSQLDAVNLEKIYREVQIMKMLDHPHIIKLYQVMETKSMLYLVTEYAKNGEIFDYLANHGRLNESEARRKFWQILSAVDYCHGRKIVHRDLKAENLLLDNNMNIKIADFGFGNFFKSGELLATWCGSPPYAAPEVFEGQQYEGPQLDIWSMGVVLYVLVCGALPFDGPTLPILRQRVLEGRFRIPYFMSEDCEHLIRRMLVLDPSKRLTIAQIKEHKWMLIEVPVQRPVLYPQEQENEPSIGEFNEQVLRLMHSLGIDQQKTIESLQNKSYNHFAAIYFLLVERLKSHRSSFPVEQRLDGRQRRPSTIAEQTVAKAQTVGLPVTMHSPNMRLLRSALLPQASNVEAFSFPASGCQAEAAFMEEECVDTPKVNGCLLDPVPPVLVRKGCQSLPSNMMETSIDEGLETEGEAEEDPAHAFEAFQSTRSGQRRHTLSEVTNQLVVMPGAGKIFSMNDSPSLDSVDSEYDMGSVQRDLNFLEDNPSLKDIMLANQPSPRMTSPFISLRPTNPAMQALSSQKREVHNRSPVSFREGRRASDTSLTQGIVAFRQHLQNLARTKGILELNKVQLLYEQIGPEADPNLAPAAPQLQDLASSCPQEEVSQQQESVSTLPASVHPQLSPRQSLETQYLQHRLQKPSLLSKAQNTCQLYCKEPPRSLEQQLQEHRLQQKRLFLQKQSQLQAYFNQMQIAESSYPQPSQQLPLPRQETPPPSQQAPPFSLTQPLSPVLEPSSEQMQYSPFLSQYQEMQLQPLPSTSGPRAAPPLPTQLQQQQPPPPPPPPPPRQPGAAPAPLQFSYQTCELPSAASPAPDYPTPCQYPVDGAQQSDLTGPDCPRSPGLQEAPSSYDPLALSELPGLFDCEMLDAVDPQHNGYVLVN

[10] = target: STE20-like serine/threonine-protein kinase (Homo sapiens, UniProt Q9H2G2)
Chain of STE20-like serine/threonine-protein kinase (Q9H2G2 whole entry): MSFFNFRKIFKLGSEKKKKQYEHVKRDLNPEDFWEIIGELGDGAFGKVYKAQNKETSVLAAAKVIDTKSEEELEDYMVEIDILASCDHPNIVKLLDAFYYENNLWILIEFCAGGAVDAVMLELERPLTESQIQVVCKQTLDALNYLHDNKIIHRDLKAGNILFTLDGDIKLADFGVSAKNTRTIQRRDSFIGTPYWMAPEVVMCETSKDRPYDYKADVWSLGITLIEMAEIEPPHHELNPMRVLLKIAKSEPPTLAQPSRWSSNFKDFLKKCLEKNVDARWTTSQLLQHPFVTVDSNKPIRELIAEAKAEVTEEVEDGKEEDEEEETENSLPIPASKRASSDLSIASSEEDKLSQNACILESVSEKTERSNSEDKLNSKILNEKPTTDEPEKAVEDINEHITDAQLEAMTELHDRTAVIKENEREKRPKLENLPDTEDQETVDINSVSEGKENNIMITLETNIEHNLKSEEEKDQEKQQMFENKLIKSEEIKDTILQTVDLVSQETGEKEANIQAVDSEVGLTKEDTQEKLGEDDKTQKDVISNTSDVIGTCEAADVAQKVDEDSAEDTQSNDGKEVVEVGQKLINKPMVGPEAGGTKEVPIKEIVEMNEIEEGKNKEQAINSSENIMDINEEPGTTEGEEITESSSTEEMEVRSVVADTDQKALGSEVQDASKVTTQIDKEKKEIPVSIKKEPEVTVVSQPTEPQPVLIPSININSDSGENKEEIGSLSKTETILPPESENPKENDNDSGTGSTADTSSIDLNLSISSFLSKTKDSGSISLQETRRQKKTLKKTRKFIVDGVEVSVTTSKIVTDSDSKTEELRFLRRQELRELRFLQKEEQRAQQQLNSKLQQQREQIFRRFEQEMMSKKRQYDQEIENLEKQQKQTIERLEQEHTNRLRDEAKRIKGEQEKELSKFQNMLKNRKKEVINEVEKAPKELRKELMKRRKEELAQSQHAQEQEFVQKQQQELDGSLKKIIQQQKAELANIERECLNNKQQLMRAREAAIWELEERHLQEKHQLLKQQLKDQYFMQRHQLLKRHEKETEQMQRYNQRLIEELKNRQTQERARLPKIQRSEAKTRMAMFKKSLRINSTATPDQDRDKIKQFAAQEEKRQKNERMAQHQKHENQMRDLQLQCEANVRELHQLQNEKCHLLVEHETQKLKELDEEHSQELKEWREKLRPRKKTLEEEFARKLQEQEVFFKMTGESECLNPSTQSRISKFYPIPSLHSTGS
Also: in the data inactive means no Kd found up to 30 µM.

Chain of Cyclin-dependent kinase 1 (P06493 whole entry): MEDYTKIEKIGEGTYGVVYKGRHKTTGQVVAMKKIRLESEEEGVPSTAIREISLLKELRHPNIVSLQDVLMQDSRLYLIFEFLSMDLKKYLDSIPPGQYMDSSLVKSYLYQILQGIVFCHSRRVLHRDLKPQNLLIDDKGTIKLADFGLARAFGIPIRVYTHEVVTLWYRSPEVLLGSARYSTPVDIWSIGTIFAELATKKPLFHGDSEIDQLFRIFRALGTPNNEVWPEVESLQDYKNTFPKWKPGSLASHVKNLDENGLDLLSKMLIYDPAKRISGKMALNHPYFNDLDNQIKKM

Row | Structure (SMILES) | Kd [1] | Kd [2] | Kd [3] | Kd [4] | Kd [5] | Kd [6] | Kd [7] | Kd [8] | Kd [9] | Kd [10]
1 | C[C@@H](Oc1cc(C(=O)Nc2ccc(C(=O)N3CCN(C)CC3)cc2)nnc1N)c1c(Cl)ccc(F)c1Cl | > 30 µM (inactive) | > 30 µM (inactive) | > 30 µM (inactive) | 2.19 µM (active) | > 30 µM (inactive) | > 30 µM (inactive) | > 30 µM (inactive) | > 30 µM (inactive) | > 30 µM (inactive) | > 30 µM (inactive)
2 | C[C@H]1CNCCCN1S(=O)(=O)c1cccc2cncc(F)c12 | > 30 µM (inactive) | > 30 µM (inactive) | > 30 µM (inactive) | > 30 µM (inactive) | > 30 µM (inactive) | > 30 µM (inactive) | > 30 µM (inactive) | 0.416 µM (active) | > 30 µM (inactive) | > 30 µM (inactive)
3 | CCNC(=O)C#Cc1ccc2c(c1)NC(=O)/C2=C(\Nc1ccc(CN(C)C)cc1)c1ccccc1 | > 30 µM (inactive) | > 30 µM (inactive) | > 30 µM (inactive) | > 30 µM (inactive) | > 30 µM (inactive) | 0.918 µM (active) | > 30 µM (inactive) | > 30 µM (inactive) | 3.51 µM (active) | 1.49 µM (active)
4 | C=CC(=O)N1CCC[C@H](n2c(=O)n(-c3ccc(Oc4ccccc4)cc3)c3c(N)ncnc32)C1 | > 30 µM (inactive) | > 30 µM (inactive) | > 30 µM (inactive) | > 30 µM (inactive) | > 30 µM (inactive) | > 30 µM (inactive) | > 30 µM (inactive) | > 30 µM (inactive) | > 30 µM (inactive) | > 30 µM (inactive)
5 | Cc1nc2cc(-c3nn(C(C)C)c4ncnc(N)c34)ccc2o1 | > 30 µM (inactive) | > 30 µM (inactive) | > 30 µM (inactive) | 1.05 µM (active) | > 30 µM (inactive) | 8.21 µM (active) | > 30 µM (inactive) | > 30 µM (inactive) | > 30 µM (inactive) | > 30 µM (inactive)
6 | Nc1ncnc2c1c(-c1cccc(OCc3ccccc3)c1)cn2[C@H]1C[C@@H](CN2CCC2)C1 [AEW-541] | > 30 µM (inactive) | > 30 µM (inactive) | > 30 µM (inactive) | > 30 µM (inactive) | > 30 µM (inactive) | > 30 µM (inactive) | > 30 µM (inactive) | > 30 µM (inactive) | > 30 µM (inactive) | > 30 µM (inactive)
7 | Cc1nc(NC(=O)N2CCC[C@H]2C(N)=O)sc1-c1ccnc(C(C)(C)C(F)(F)F)c1 [ALPELISIB] | > 30 µM (inactive) | > 30 µM (inactive) | > 30 µM (inactive) | > 30 µM (inactive) | > 30 µM (inactive) | > 30 µM (inactive) | > 30 µM (inactive) | > 30 µM (inactive) | > 30 µM (inactive) | > 30 µM (inactive)
8 | C=CC(=O)Nc1cc2c(Nc3ccc(F)c(Cl)c3)ncnc2cc1C#CC(C)(C)N1CCN(C)CC1 [AV-412 FREE BASE] | > 30 µM (inactive) | > 30 µM (inactive) | > 30 µM (inactive) | 7.96 µM (active) | > 30 µM (inactive) | > 30 µM (inactive) | > 30 µM (inactive) | > 30 µM (inactive) | > 30 µM (inactive) | 13.4 µM (active)
9 | COc1cc([C@@H]2c3cc4c(cc3[C@H](O)[C@H]3COC(=O)[C@@H]23)OCO4)cc(OC)c1OC [AXL-1717] | > 30 µM (inactive) | > 30 µM (inactive) | > 30 µM (inactive) | > 30 µM (inactive) | > 30 µM (inactive) | > 30 µM (inactive) | > 30 µM (inactive) | > 30 µM (inactive) | > 30 µM (inactive) | > 30 µM (inactive)
10 | NC(=O)Nc1cc(-c2cccc(F)c2)sc1C(=O)N[C@H]1CCCNC1 [AZD-7762] | > 30 µM (inactive) | > 30 µM (inactive) | > 30 µM (inactive) | > 30 µM (inactive) | > 30 µM (inactive) | 4.53 µM (active) | > 30 µM (inactive) | 2.16 µM (active) | 0.007 µM (active) | 1.09 µM (active)
11 | Cn1cnc2c(F)c(Nc3ccc(Br)cc3F)c(C(=O)NOCCO)cc21 [BINIMETINIB] | > 30 µM (inactive) | > 30 µM (inactive) | > 30 µM (inactive) | > 30 µM (inactive) | > 30 µM (inactive) | > 30 µM (inactive) | > 30 µM (inactive) | > 30 µM (inactive) | > 30 µM (inactive) | > 30 µM (inactive)

Second part, the compound after the results:

Row | Kd [1] | Kd [2] | Kd [3] | Kd [4] | Kd [5] | Kd [6] | Kd [7] | Kd [8] | Kd [9] | Kd [10] | Structure (SMILES)
12 | > 30 µM (inactive) | > 30 µM (inactive) | > 30 µM (inactive) | > 30 µM (inactive) | 2.69 µM (active) | > 30 µM (inactive) | > 30 µM (inactive) | > 30 µM (inactive) | > 30 µM (inactive) | > 30 µM (inactive) | Cc1csc(-c2nnc(Nc3ccc(Oc4ncccc4-c4ccnc(N)n4)cc3)c3ccccc23)c1 [AMG-900]
13 | > 30 µM (inactive) | > 30 µM (inactive) | > 30 µM (inactive) | > 30 µM (inactive) | > 30 µM (inactive) | > 30 µM (inactive) | > 30 µM (inactive) | > 30 µM (inactive) | > 30 µM (inactive) | > 30 µM (inactive) | Cc1cc(C(=O)NOCCO)c(Nc2ccc(I)cc2F)n(C)c1=O [AZD-8330]
14 | > 30 µM (inactive) | > 30 µM (inactive) | > 30 µM (inactive) | > 30 µM (inactive) | > 30 µM (inactive) | > 30 µM (inactive) | > 30 µM (inactive) | > 30 µM (inactive) | > 30 µM (inactive) | > 30 µM (inactive) | CCn1c(C(=O)N(C2CC2)C2CC2)cc2c3c(ncn3C)c(Nc3cc(C)n(C)n3)nc21 [BMS-911543]
15 | > 30 µM (inactive) | > 30 µM (inactive) | > 30 µM (inactive) | > 30 µM (inactive) | 0.49 µM (active) | > 30 µM (inactive) | > 30 µM (inactive) | > 30 µM (inactive) | > 30 µM (inactive) | > 30 µM (inactive) | COc1cc2ncnc(Oc3cccc(NC(=O)Nc4cc(C(C)(C)C(F)(F)F)on4)c3)c2cc1OC [CEP-32496]
